Reference: patent US9345691B2, “Beta-lactam compounds for enhancing T cell-mediated immune responses” (STEM CELL MEDICINE LTD., priority 2011, dated 2016)
Entries after “also recorded” stand apart in the source; their conditions may differ.

Experiments:
CD4+ human T cells = test: Human Autoimmune and Inflammatory Response Gene Array, anti-CD3 stimulated T cells; type: cell-based; conditions: 120 min anti-CD3; for % decrease by Cef.: cefuroxime 50 μg/ml, ±SD, relative to control
Protocol: T cells were purified from the peripheral bloods of healthy human donors (Blood Bank, Sheba Medical center). The whole blood was incubated (20 min, 22° C.) with RosetteSep™ human T cell enrichment mixture (StemCell Technologies, Vancouver, Canada). The remaining unsedimented cells were then loaded onto lymphocyte separation medium (ICN Biomedicals, Irvine, Calif.), isolated by density centrifugation, and washed with PBS. […] In a second round of purification, CD3^+ T cells were labeled for selection with a magnetically coupled mAb against CD4 (Miltenyi Biotec, Auburn, Calif.).
Human CD4 T cells were isolated as described, and incubated in 24 well plates (Nunc), 4×10^6 cells/ml with plate bound anti-human CD3 (OKT3) at 2 μg/ml. The stimulation was performed in RPMI medium supplemented with 0.1% BSA. […] RNA was extracted from samples and used to prepare probes for gene array in accord with the manufacturer's instructions (SuperArray Bioscience, Frederick, Md.). Adequate labeling of the probes was tested before hybridization. Three healthy donors were tested in stimulation with cefuroxime. The membranes were analyzed online with the Image Data Acquisition and Expression Analysis (SuperArray Bioscience).
The Human Autoimmune and Inflammatory Response Gene Array (SuperArray Bioscience corporation, Frederick, Md., USA) was used for analysis of gene expression by the T cells. This array contains 367 genes including cytokines, chemokines and their receptors, transcription factors and signaling proteins. […] Analysis of the results was performed using the GEArray analysis program (www.SuperArray.com). […] To verify the results detected by the gene array study, a panel of six genes was designed and tested by real-time PCR: CCR4, ACVR2, JAK1, STAT4, TLR2 and NFKBIE. The cDNA that was used was prepared from the same RNA used for the gene array experiment.

[1] = tested on: encephalitogenic BP10 T-cell line; test: Adoptive EAE by BP10 line stimulated in vitro with test substance; type: in vivo, rat
Excerpt: The ability of a compound to enhance T cell activity may be determined, for example, using an in vivo assay testing the effect of a given compound on the severity of adoptive (passive) EAE, namely, EAE which is induced by the injection of activated encephalitogenic T cell line to the model animal. In order to test a compound, the encephalitogenic T cells are activated in the presence of the compound prior to injection. An exemplary procedure is described in the Examples section hereinbelow.
Antigen-specific T-cell lines were established from lymph node cells that had been stimulated with myelin basic protein (MBP; 10 μg/ml) for 3 days in stimulation medium as described below. Following stimulation, the T-cell blasts were isolated on Lympho-prep (Nycomed Pharma, Oslo, Norway) and seeded in propagation medium. Propagation medium was identical to stimulation medium without autologous serum, but supplemented with fetal calf serum 10% and T-cell growth factors from the supernatant of Con A stimulated spleen cells 10% (Mor et al. (1990) J Clin Invest, 85, 1594-1598). Animals were injected intra-peritoneally with 10^7 MBP-stimulated T cells, following 6-8 cycles of in vitro stimulations. It is known that MBP-reactive lines undergo a reduction in pathogenicity after 6 or more in vitro stimulations. In some experiments the BP10 line was stimulated with phorbol myristate acetate (PMA; 50 ng/ml) and ionomycin (500 ng/ml) for 3 days in stimulation medium, without antigen-presenting cells.
Active EAE was induced by subcutaneous injection of 25 μg guinea-pig MBP (GpMBP) in complete Freund's adjuvant (CFA). CFA was prepared by adding 4 mg/ml Mycobacterium tuberculosis H37Ra (Difco, Mich.) to incomplete Freund's adjuvant (IFA). Adoptive EAE was transferred by intra-peritoneal injection of guinea-pig MBP-activated cells of the BP10 line as described in Mor et al. (1993) J Clin Invest, 92, 2199-2206. […] Clinical scoring was: +1, paralysis of tail; +1.5, paresis of posterior paws and ataxia; +2, paraplegia; +3, paralysis extending to thoracic spine; +4, a moribund state.
Treatment with cefuroxime in vivo could affect many different host agents involved in EAE or AA as well as influencing the rats' bacterial flora. To test whether the antibiotic might directly modify the behavior of effector T cells, an encephalitogenic T-cell line was stimulated in the presence or absence of cefuroxime in vitro. The weakly encephalitogenic BP10 line was used, and was stimulated for 3 days with MBP in the presence or absence of cefuroxime (50 μg/ml). The activated T cells were then washed to remove the antibiotic, the T cells were injected intra-peritoneally into naïve recipient rats (10^7 per rat), and EAE was scored. The BP10 line at later stimulations was used, when its pathogenic potential is reduced, allowing to detect both suppression and enhancement of disease. […] To rule out antigen presenting cells (APC) as the target of the beta-lactam antibiotic, the encephalitogenic BP10 line was stimulated without APC using PMA (50 ng/ml) and Ionomycin (500 ng/ml) in the presence or absence of cefuroxime.

## CO/N=C(\C(=O)N[C@@H]1C(=O)N2C(C(=O)O)=C(COC(N)=O)CS[C@H]12)c1ccco1 [cefuroxime]
CD4+ human T cells; array of 367 genes, 50 μg/ml
  number of genes down-regulated: Fifty-seven
CD4+ human T cells; gene ACTB
  % decrease by Cef.: 49 ± 11%
CD4+ human T cells; gene ACVR1
  % decrease by Cef.: 42 ± 0.7%
CD4+ human T cells; gene ACVR2
  % decrease by Cef.: 60 ± 14.8%
CD4+ human T cells; gene CCL5
  % decrease by Cef.: 21 ± 5.6%
CD4+ human T cells; gene CCL11
  % decrease by Cef.: 18 ± 6.6%
CD4+ human T cells; gene CCR4
  % decrease by Cef.: 39 ± 2%
CD4+ human T cells; gene CCR6
  % decrease by Cef.: 53 ± 5.6%
CD4+ human T cells; gene CCR7
  % decrease by Cef.: 38 ± 8.1%
CD4+ human T cells; gene CD28
  % decrease by Cef.: 51 ± 2.1%
CD4+ human T cells; gene CD40LG
  % decrease by Cef.: 33 ± 7.1%
CD4+ human T cells; gene CREB1
  % decrease by Cef.: 19 ± 4.9%
CD4+ human T cells; gene CREBBP
  % decrease by Cef.: 40 ± 9.9%
CD4+ human T cells; gene CXCL10
  % decrease by Cef.: 39 ± 3%
CD4+ human T cells; gene EGR3
  % decrease by Cef.: 38 ± 2.8%
CD4+ human T cells; gene GFI1
  % decrease by Cef.: 45 ± 14%
CD4+ human T cells; gene HRAS
  % decrease by Cef.: 30 ± 9.8%
CD4+ human T cells; gene IL1B
  % decrease by Cef.: 54 ± 7.0%
CD4+ human T cells; gene IL2RB
  % decrease by Cef.: 50 ± 9.9%
CD4+ human T cells; gene IL2RG
  % decrease by Cef.: 57 ± 9.8%
CD4+ human T cells; gene IL9R
  % decrease by Cef.: 27.5 ± 3%
CD4+ human T cells; gene IL16
  % decrease by Cef.: 50 ± 7.8%
CD4+ human T cells; gene IRAK1
  % decrease by Cef.: 44 ± 2.1%
CD4+ human T cells; gene JAK1
  % decrease by Cef.: 53 ± 13.4%
CD4+ human T cells; gene JUN
  % decrease by Cef.: 49 ± 2.2%
CD4+ human T cells; gene LTA
  % decrease by Cef.: 17 ± 10%
CD4+ human T cells; gene MAP2K4
  % decrease by Cef.: 52 ± 14.1%
CD4+ human T cells; gene MAP3K1
  % decrease by Cef.: 53 ± 12%
CD4+ human T cells; gene MAP3K2
  % decrease by Cef.: 36 ± 12%
CD4+ human T cells; gene MAP3K7
  % decrease by Cef.: 46 ± 9.9%
CD4+ human T cells; gene MAPK9
  % decrease by Cef.: 42 ± 10.9%
CD4+ human T cells; gene NFKB1
  % decrease by Cef.: 43 ± 3.5%
CD4+ human T cells; gene NFKB2
  % decrease by Cef.: 53 ± 10.6%
CD4+ human T cells; gene NFKBIE
  % decrease by Cef.: 63 ± 11%
CD4+ human T cells; gene NFKBIL1
  % decrease by Cef.: 54 ± 12.5%
CD4+ human T cells; gene PAK1
  % decrease by Cef.: 40 ± 2.4%
CD4+ human T cells; gene PIN1
  % decrease by Cef.: 45 ± 12.1%
CD4+ human T cells; gene RANBP5
  % decrease by Cef.: 33 ± 3.5%
CD4+ human T cells; gene REL
  % decrease by Cef.: 45 ± 1.9%
CD4+ human T cells; gene RFX5
  % decrease by Cef.: 36 ± 4.2%
CD4+ human T cells; gene RFXAP
  % decrease by Cef.: 27 ± 12%
CD4+ human T cells; gene SDF2
  % decrease by Cef.: 28 ± 12%
CD4+ human T cells; gene SELL
  % decrease by Cef.: 46 ± 7.0%
CD4+ human T cells; gene SMAD4
  % decrease by Cef.: 47 ± 7.0%
CD4+ human T cells; gene SMAD7
  % decrease by Cef.: 47 ± 4.2%
CD4+ human T cells; gene SP3
  % decrease by Cef.: 39 ± 9.9%
CD4+ human T cells; gene SRF
  % decrease by Cef.: 38 ± 1.9%
CD4+ human T cells; gene STAT1
  % decrease by Cef.: 32 ± 11%
CD4+ human T cells; gene STAT4
  % decrease by Cef.: 47 ± 9.3%
CD4+ human T cells; gene STAT6
  % decrease by Cef.: 47 ± 7.9%
CD4+ human T cells; gene TGFBR3
  % decrease by Cef.: 44 ± 3.5%
CD4+ human T cells; gene TGIF
  % decrease by Cef.: 43 ± 3.5%
CD4+ human T cells; gene TLR2
  % decrease by Cef.: 52 ± 14%
CD4+ human T cells; gene TNFRSF11A
  % decrease by Cef.: 43 ± 2%
CD4+ human T cells; gene TNFα
  % decrease by Cef.: 29 ± 8.5%
CD4+ human T cells; gene TRAF5
  % decrease by Cef.: 43 ± 2.2%
CD4+ human T cells; gene TRAF6
  % decrease by Cef.: 43 ± 3.5%
CD4+ human T cells; gene YY1
  % decrease by Cef.: 23 ± 9.1%
[1]; BP10 line stimulated 3 days with MBP in presence of 50 μg/ml, 10^7 cells IP per rat
  severity of adoptive EAE: markedly enhanced the manifestations of EAE; also recorded: enhanced EAE severity; also recorded: enhances the pathogenicity of the BP10 line
[1]; BP10 line stimulated without APC using PMA (50 ng/ml) and Ionomycin (500 ng/ml)
  severity of adoptive EAE: significantly more severe
[1]; dose-response, BP10 line stimulated in presence of 5 μg/ml
  severity of adoptive EAE: ineffective
[1]; dose-response, BP10 line stimulated in presence of 25 μg/ml
  severity of adoptive EAE: enhancing effect similar to that of 50 μg/ml
